Assay results as given in patent US20100120740A1, “PRODRUGS OF FUSED HETEROCYCLIC INHIBITORS OF D-AMINO ACID OXIDASE” (SEPRACOR INC., priority 2008, published 2010).

Experiment: Rate of hydrolysis of test compounds to 4H-furo[3,2-b]pyrrole-5-carboxylic acid in pH 7.4 and 2.0 aqueous solutions
Type: physicochemical
Conditions: HPLC; for Hydrolysis rate at pH 7.4: 0.05 M sodium phosphate buffer pH 7.4, 0.013 mg/mL, over 6 hours; for Hydrolysis rate at pH 2.0: water adjusted with phosphoric acid to pH 2.0, 0.013 mg/mL, over 2 hours
Experimental: 10 mM DMSO solutions of test compounds were diluted with a 0.05 M sodium phosphate buffer (pH 7.4) or water adjusted with phosphoric acid to pH 2.0, with a final concentration of 0.013 mg/mL. Samples were analyzed over either 2 or 6 hours, by HPLC. The amount of test compound and the corresponding acid were determined. The rate of conversion of the test compound was calculated based on formation of the corresponding acid and loss of parent.
The rate of hydrolysis of test compounds to 4H-furo[3,2-b]pyrrole-5-carboxylic acid was evaluated in pH 7.4 aqueous solution over 6 hours, and in pH 2.0 aqueous solution over 2 hours, according to General Procedure 15.

Compound	Hydrolysis rate at pH 7.4	Hydrolysis rate at pH 2.0
Cc1oc(=O)oc1COC(=O)c1cc2occc2[nH]1 [Compound 12, (5-methyl-2-oxo-1,3-dioxol-4-yl)methyl 4H-furo[3,2-b]pyrrole-5-carboxylate]	0.20%/hr	No hydrolysis
CC(OC(=O)c1cc2occc2[nH]1)OC(=O)C(C)C (centres unmarked) [Compound 31b, 1-(isobutyryloxy)ethyl 4H-furo[3,2-b]pyrrole-5-carboxylate]	3.46%/hr	
O=C(OCCN1CCOCC1)c1cc2occc2[nH]1 [Compound 24, 2-morpholinoethyl 4H-furo[3,2-b]pyrrole-5-carboxylate]	No hydrolysis	No hydrolysis
CN(C)C(=O)COC(=O)c1cc2occc2[nH]1 [Compound 20, 2-(dimethylamino)-2-oxoethyl 4H-furo[3,2-b]pyrrole-5-carboxylate]	No hydrolysis	No hydrolysis

Further lines, results first:

Hydrolysis rate at pH 7.4	Hydrolysis rate at pH 2.0	Compound
No hydrolysis	No hydrolysis	O=C(OCC(=O)N1CCC1)c1cc2occc2[nH]1 [Compound 22a, 2-(azetidin-1-yl)-2-oxoethyl 4H-furo[3,2-b]pyrrole-5-carboxylate]
No hydrolysis	No hydrolysis	O=C(OCC1CCCO1)c1cc2occc2[nH]1 (centres unmarked) [Compound 11, (tetrahydrofuran-2-yl)methyl 4H-furo[3,2-b]pyrrole-5-carboxylate]
0.21%/hr		CC(OC(=O)OC1CCCCC1)OC(=O)c1cc2occc2[nH]1 (centres unmarked) [Compound 36b, 1-(cyclohexyloxycarbonyloxy)ethyl 4H-furo[3,2-b]pyrrole-5-carboxylate]
No hydrolysis	No hydrolysis	O=C(OCC(=O)N1CCOCC1)c1cc2occc2[nH]1 [Compound 21a, 2-morpholino-2-oxoethyl 4H-furo[3,2-b]pyrrole-5-carboxylate]
